Test results taken from ChEMBL document CHEMBL6114968, “Discovery of BW710 as a potent, selective and orally bioavailable fibroblast growth factor receptor 2 (FGFR2) inhibitor” (Eur J Med Chem, 2025).
Values belong to the compound of their own block, whether it stands above or below them.

Experiments:
[1] = system: BaF3; assay: Antiproliferative activity against mouse BaF3 cells expressing FGFR2 incubated for 72 hrs by CCK-8 assay; assay type: functional, cell-based; conditions: BaF3, 72 h
[2] = system: BaF3; assay: Antiproliferative activity against mouse BaF3 cells incubated for 72 hrs by CCK-8 assay; conditions: BaF3, 72 h
[3] = system: BaF3; assay: Antiproliferative activity against mouse BaF3 cells expressing FGFR1 incubated for 72 hrs by CCK-8 assay; assay type: functional, cell-based; conditions: BaF3, 72 h
[4] = Antiproliferative activity against human RT-112 cells harboring FGFR3-TACC3 measured after 72 hrs by CCK-8 assay; assay type: functional, cell-based; conditions: RT-112, 72 h
[5] = system: MDA-MB-453; assay: Antiproliferative activity against human MDA-MB-453 cells harboring FGFR4-Y367C measured after 72 hrs by CCK-8 assay; assay type: functional, cell-based; conditions: MDA-MB-453, 72 h
[6] = Half life in mouse at 1 mg/kg, iv; assay type: ADME, organism-based; conditions: in vivo
[7] = Antiproliferative activity against FGFR2 amplified human KATO III stomach cancer cell line measured after 72 hrs by CCK-8 assay; assay type: functional, cell-based
[8] = Oral bioavailability in mouse at 10 mg/kg; assay type: ADME, organism-based; conditions: in vivo
[9] = Cmax in mouse at 1 mg/kg, iv; assay type: ADME, organism-based; conditions: in vivo
[10] = molecular target: Fibroblast growth factor receptor 3 (Homo sapiens) (UniProt P22607); assay: Inhibition of FGFR3 (unknown origin) at 1 uM by KINOMEscan analysis relative to control
Sequence of Fibroblast growth factor receptor 3 (Homo sapiens) (P22607 23-806 limits assumed): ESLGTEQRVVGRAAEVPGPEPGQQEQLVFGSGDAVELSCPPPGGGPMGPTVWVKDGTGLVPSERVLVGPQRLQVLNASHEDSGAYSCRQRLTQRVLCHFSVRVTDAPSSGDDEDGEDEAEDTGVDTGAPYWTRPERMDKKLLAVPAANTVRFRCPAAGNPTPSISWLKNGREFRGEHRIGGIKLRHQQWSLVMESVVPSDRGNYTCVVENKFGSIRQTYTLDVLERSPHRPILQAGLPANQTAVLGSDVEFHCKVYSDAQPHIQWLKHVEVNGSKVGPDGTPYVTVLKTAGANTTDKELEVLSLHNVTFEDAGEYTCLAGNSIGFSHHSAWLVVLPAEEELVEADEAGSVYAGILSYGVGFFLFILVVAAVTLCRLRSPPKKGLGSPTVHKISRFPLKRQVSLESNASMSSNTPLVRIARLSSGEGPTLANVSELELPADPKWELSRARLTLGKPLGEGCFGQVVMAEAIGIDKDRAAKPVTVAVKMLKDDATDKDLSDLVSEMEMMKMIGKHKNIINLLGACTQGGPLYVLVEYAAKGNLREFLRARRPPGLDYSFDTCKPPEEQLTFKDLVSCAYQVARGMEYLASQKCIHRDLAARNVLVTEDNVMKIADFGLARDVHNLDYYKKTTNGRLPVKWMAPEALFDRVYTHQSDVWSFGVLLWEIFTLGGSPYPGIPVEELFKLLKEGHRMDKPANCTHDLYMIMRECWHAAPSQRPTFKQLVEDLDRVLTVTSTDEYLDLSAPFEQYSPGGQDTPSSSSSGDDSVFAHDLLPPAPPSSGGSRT

[11] = system: A204; assay: Antiproliferative activity against FGFR1 amplified human A204 cells measured after 72 hrs by CCK-8 assay; assay type: functional, cell-based; conditions: A204, 72 h
[12] = MRT(0 to t) in mouse at 10 mg/kg, po; assay type: ADME, organism-based; conditions: in vivo
[13] = molecular target: Fibroblast growth factor receptor 2 (Homo sapiens) (UniProt P21802); assay: Inhibition of FGFR2 in human SNU-16 cells assessed as decrease in ERK1/2 phosphorylation incubated for 1 hr by Western blot analysis; assay type: cell-based; conditions: dose 0.5-100 nM
Sequence of Fibroblast growth factor receptor 2 (Homo sapiens) (P21802 22-821 limits assumed): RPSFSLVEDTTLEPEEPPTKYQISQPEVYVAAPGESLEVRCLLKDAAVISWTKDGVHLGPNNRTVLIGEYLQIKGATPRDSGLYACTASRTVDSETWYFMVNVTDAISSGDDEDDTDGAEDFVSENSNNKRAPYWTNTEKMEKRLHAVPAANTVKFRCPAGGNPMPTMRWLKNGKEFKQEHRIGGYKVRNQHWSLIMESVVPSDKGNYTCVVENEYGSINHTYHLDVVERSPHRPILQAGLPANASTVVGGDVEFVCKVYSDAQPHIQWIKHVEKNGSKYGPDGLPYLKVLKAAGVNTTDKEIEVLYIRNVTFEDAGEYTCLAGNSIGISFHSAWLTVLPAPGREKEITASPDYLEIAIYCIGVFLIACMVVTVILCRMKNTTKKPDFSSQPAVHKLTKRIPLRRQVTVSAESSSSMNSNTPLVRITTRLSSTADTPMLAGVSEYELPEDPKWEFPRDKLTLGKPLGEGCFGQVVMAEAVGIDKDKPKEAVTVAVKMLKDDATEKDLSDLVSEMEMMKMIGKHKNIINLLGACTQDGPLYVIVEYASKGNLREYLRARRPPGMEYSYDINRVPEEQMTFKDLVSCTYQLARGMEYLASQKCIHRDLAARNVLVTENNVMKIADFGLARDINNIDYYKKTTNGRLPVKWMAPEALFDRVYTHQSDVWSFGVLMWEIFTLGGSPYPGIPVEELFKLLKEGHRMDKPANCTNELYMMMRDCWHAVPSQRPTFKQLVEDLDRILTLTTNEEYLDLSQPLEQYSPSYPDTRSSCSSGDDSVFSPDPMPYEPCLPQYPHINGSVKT

[14] = Cmax in mouse at 10 mg/kg, po; assay type: ADME, organism-based; conditions: in vivo
[15] = molecular target: Fibroblast growth factor receptor 1 (Homo sapiens) (UniProt P11362); assay: Inhibition of FGFR1 (unknown origin) at 1 uM by KINOMEscan analysis relative to control
Sequence of Fibroblast growth factor receptor 1 (Homo sapiens) (P11362 22-822 limits assumed): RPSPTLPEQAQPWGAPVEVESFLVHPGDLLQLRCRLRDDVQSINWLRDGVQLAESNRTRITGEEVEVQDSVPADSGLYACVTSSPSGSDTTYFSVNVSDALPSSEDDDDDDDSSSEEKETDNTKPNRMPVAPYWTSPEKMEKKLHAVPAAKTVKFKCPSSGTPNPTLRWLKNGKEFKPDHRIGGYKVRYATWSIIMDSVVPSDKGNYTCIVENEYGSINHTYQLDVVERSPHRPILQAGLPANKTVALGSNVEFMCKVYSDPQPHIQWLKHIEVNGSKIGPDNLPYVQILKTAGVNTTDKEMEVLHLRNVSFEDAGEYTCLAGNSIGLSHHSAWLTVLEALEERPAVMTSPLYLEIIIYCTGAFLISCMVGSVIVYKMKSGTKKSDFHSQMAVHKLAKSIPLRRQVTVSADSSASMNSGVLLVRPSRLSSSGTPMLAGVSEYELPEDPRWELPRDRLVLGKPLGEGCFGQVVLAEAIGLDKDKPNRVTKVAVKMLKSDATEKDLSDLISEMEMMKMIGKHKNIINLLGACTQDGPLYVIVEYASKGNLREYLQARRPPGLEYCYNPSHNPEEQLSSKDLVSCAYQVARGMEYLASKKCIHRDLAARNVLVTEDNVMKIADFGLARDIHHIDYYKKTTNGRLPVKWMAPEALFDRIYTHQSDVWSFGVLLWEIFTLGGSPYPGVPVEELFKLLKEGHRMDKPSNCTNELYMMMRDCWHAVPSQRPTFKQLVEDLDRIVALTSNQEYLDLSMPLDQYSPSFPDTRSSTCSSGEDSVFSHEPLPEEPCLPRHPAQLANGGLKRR

[16] = molecular target: Fibroblast growth factor receptor 2 (Homo sapiens) (UniProt P21802); assay: Inhibition of FGFR2 in human SNU-16 cells assessed as decrease in Akt phosphorylation at Ser473 residue incubated for 1 hr by Western blot analysis; assay type: cell-based; conditions: dose 0.5-100 nM
[17] = molecular target: Fibroblast growth factor receptor 2 (Homo sapiens) (UniProt P21802); assay: Inhibition of FGFR2 in human SNU-16 cells assessed as decrease in FRS2-alpha phosphorylation at Tyr436 residue incubated for 1 hr by Western blot analysis; assay type: cell-based; conditions: dose 0.5-100 nM
[18] = AUC(0 to t) in mouse at 1 mg/kg, iv; assay type: ADME, organism-based; conditions: in vivo
[19] = MRT(0 to t) in mouse at 1 mg/kg, iv; assay type: ADME, organism-based; conditions: in vivo
[20] = Half life in mouse at 10 mg/kg, po; assay type: ADME, organism-based; conditions: in vivo
[21] = molecular target: Fibroblast growth factor receptor 2 (Homo sapiens) (UniProt P21802); assay: Inhibition of FGFR2 (unknown origin) at 1 uM by KINOMEscan analysis relative to control
[22] = Clearance in mouse at 1 mg/kg, iv; assay type: ADME, organism-based; conditions: in vivo
[23] = molecular target: Fibroblast growth factor receptor 2 (Homo sapiens) (UniProt P21802); assay: Inhibition of FGFR2 phosphorylation in human SNU-16 cells incubated for 1 hr by Western blot analysis; assay type: cell-based; conditions: dose 0.5-100 nM
[24] = Antiproliferative activity against FGFR2 amplified human SNU-16 cells measured after 72 hrs by CCK-8 assay; assay type: functional, cell-based; conditions: SNU-16, 72 h
[25] = AUC(0 to t) in mouse at 10 mg/kg, po; assay type: ADME, organism-based; conditions: in vivo
[26] = molecular target: Fibroblast growth factor receptor 4 (Homo sapiens) (UniProt P22455); assay: Inhibition of FGFR4 (unknown origin) at 1 uM by KINOMEscan analysis relative to control
Sequence of Fibroblast growth factor receptor 4 (Homo sapiens) (P22455 22-802 limits assumed): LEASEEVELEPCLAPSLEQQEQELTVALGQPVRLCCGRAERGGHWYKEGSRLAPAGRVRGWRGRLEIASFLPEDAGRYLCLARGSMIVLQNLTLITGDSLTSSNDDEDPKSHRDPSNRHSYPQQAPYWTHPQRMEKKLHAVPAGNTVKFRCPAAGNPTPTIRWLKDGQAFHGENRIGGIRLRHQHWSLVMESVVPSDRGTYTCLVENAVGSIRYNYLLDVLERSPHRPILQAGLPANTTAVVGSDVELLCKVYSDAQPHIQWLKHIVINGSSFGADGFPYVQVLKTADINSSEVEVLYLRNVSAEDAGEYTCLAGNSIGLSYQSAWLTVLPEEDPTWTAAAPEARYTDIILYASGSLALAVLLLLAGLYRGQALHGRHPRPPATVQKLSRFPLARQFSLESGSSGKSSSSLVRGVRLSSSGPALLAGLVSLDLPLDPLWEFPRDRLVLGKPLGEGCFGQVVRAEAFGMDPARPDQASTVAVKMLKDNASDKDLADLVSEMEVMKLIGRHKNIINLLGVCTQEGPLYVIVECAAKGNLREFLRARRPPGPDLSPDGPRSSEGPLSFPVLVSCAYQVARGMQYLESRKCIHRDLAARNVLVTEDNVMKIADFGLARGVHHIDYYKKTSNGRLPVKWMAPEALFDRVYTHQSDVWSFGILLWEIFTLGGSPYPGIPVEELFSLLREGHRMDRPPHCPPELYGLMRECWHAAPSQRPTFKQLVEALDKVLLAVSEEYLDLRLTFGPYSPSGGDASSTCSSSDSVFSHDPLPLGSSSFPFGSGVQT

[27] = Selectivity ratio of IC50 for antiproliferative activity against mouse BaF3 cells expressing FGFR1 to IC50 for antiproliferative activity against mouse BaF3 cells expressing FGFR2; assay type: functional

IC50 [1]: 12 nM
IC50 [2]: > 1000 nM
IC50 [3]: > 1000 nM
SMILES: C=CC(=O)Nc1ccc(-c2c(-c3ccc(S4(=O)=NCCC4)cc3)c3c(N)ncnc3n2C)cc1 (stereo unspecified)

IC50 [1]: 6.6 nM
IC50 [2]: > 1000 nM
IC50 [3]: 885 nM
SMILES: C=CC(=O)Nc1ccc(-c2c(-c3ccc(S(=N)(=O)C4CCCC4)cc3)c3c(N)ncnc3n2C)cc1 (stereo unspecified)

IC50 [1]: 101 nM
IC50 [2]: > 1000 nM
IC50 [3]: 429 nM
SMILES: C=CC(=O)Nc1ccc(-c2c(-c3ccc(S(C)(=O)=Nc4ccccc4)cc3)c3c(N)ncnc3n2C)cc1 (stereo unspecified)

IC50 [1]: 2.4 nM
IC50 [3]: 493 nM
SMILES: C=C(C)C(=O)Nc1ccc(-c2c(-c3ccc(Oc4nccc(C)n4)c(F)c3)c3c(N)ncnc3n2C)cc1 [LIRAFUGRATINIB]

IC50 [1]: 106 nM
IC50 [2]: > 1000 nM
IC50 [3]: > 1000 nM
SMILES: C=C(C)C(=O)Nc1ccc(-c2c(-c3ccc(S4(=O)=NCCCCC4)cc3)c3c(N)ncnc3n2C)cc1F (stereo unspecified)

IC50 [1]: 153 nM
IC50 [2]: > 1000 nM
IC50 [3]: > 1000 nM
SMILES: C=CC(=O)Nc1ccc(-c2c(-c3ccc(S(C)(=O)=NCC)cc3)c3c(N)ncnc3n2C)cc1 (stereo unspecified)

IC50 [1]: 101 nM
IC50 [2]: > 1000 nM
IC50 [3]: > 1000 nM
SMILES: C=CC(=O)Nc1ccc(-c2c(-c3ccc(S(=O)(CC)=NC)cc3)c3c(N)ncnc3n2C)cc1 (stereo unspecified)

IC50 [1]: 8.9 nM
IC50 [2]: > 1000 nM
IC50 [3]: 787 nM
SMILES: C=CC(=O)Nc1ccc(-c2c(-c3ccc(S(=N)(=O)C4CCCCC4)cc3)c3c(N)ncnc3n2C)cc1 (stereo unspecified)

IC50 [1]: 12.3 nM
IC50 [2]: > 1000 nM
IC50 [3]: > 1000 nM
SMILES: C=CC(=O)Nc1ccc(-c2c(-c3ccc(S(=N)(=O)CC(C)C)cc3)c3c(N)ncnc3n2C)cc1 (stereo unspecified)

IC50 [1]: 310 nM
IC50 [2]: > 1000 nM
IC50 [3]: > 1000 nM
SMILES: C=CC(=O)Nc1ccc(-c2c(-c3ccc(S4(=O)=NCCOCC4)cc3)c3c(N)ncnc3n2C)cc1 (stereo unspecified)

IC50 [1]: 3.6 nM
IC50 [2]: > 1000 nM
IC50 [3]: 385 nM
SMILES: C=CC(=O)Nc1ccc(-c2c(-c3ccc(S4(=O)=NCCCCC45CC5)cc3)c3c(N)ncnc3n2C)cc1 (stereo unspecified)

IC50 [1]: 90.1 nM
IC50 [2]: > 1000 nM
IC50 [3]: 841 nM
SMILES: C=CC(=O)Nc1ccc(-c2c(-c3ccc(S(C)(=O)=NCCC)cc3)c3c(N)ncnc3n2C)cc1 (stereo unspecified)

IC50 [5]: 2850 nM
IC50 [1]: 2.8 nM
half-life [6]: 52.2 min
bioavailability [8]: 29%
Cmax [9]: 4700 ng/mL
inhibition [10]: 13.7%
IC50 [2]: > 1000 nM
MRT last [12]: 87.6 min
inhibition [13]: Dose-dependent-effect
Cmax [14]: 2910 ng/mL
inhibition [15]: 14.7%
inhibition [16]: Dose-dependent-effect
inhibition [17]: Dose-dependent-effect
IC50 [3]: > 1000 nM
AUC(0-t) [18]: 1270 ng·h/mL
MRT last [19]: 28.8 min
half-life [20]: 64.8 min
inhibition [21]: 101%
clearance [22]: 13.2 mL/min/kg
inhibition [23]: Dose-dependent-effect
AUC(0-t) [25]: 3650 ng·h/mL
inhibition [26]: 5.85%
SMILES: C=C(C)C(=O)Nc1ccc(-c2c(-c3ccc(S4(=O)=NCCCCC4)cc3)c3c(N)ncnc3n2C)c(F)c1 (stereo unspecified)
IC50 [4]: 782 nM
IC50 [7]: 12.6 nM
IC50 [11]: 2380 nM
IC50 [24]: 6.7 nM

IC50 [1]: 35.5 nM
IC50 [2]: > 1000 nM
IC50 [3]: > 1000 nM
SMILES: C=CC(=O)Nc1ccc(-c2c(-c3ccc(S(=O)(CCC)=NC)cc3)c3c(N)ncnc3n2C)cc1 (stereo unspecified)

IC50 [1]: 105 nM
IC50 [2]: > 1000 nM
IC50 [3]: > 1000 nM
SMILES: C=C(C)C(=O)Nc1ccc(-c2c(-c3ccc(S4(=O)=NCCCCC4)c(F)c3)c3c(N)ncnc3n2C)cc1 (stereo unspecified)

IC50 [1]: 335 nM
IC50 [2]: > 1000 nM
IC50 [3]: > 1000 nM
SMILES: C=CC(=O)Nc1ccc(-c2c(-c3ccc(S(C)(=O)=NC)cc3)c3c(N)ncnc3n2C)cc1 (stereo unspecified)

IC50 [1]: 61.9 nM
IC50 [2]: > 1000 nM
IC50 [3]: > 1000 nM
SMILES: C=CC(=O)Nc1ccc(-c2c(-c3ccc(S(=N)(=O)C4CC4)cc3)c3c(N)ncnc3n2C)cc1 (stereo unspecified)

IC50 [5]: 4180 nM
IC50 [1]: > 1000 nM
IC50 [2]: > 1000 nM
IC50 [3]: > 1000 nM
SMILES: CCC(=O)Nc1ccc(-c2c(-c3ccc(S4(=O)=NCCCCC4)cc3)c3c(N)ncnc3n2C)c(F)c1 (stereo unspecified)
IC50 [4]: > 10000 nM
IC50 [7]: 2210 nM
IC50 [11]: > 10000 nM
IC50 [24]: 1280 nM

IC50 [1]: 108 nM
IC50 [2]: > 1000 nM
IC50 [3]: > 1000 nM
SMILES: C=CC(=O)Nc1ccc(-c2c(-c3ccc(S(C)(=O)=NC4CC4)cc3)c3c(N)ncnc3n2C)cc1 (stereo unspecified)

IC50 [1]: 70.1 nM
IC50 [2]: > 1000 nM
IC50 [3]: > 1000 nM
SMILES: C=CC(=O)Nc1ccc(-c2c(-c3ccc(S(=N)(=O)CCC)cc3)c3c(N)ncnc3n2C)cc1 (stereo unspecified)

IC50 [5]: 150 nM
IC50 [1]: 2 nM
IC50 [2]: > 1000 nM
IC50 [3]: 19.8 nM
SMILES: CCN1C(=O)N(c2c(F)c(OC)cc(OC)c2F)Cc2cnc3[nH]c(CN4CCOCC4)cc3c21 [PEMIGATINIB]
IC50 [4]: 10.9 nM
IC50 [7]: 1.8 nM
IC50 [11]: 29.2 nM
IC50 [24]: 1.1 nM

IC50 [1]: 2.9 nM
IC50 [2]: > 1000 nM
IC50 [3]: 684 nM
SMILES: C=CC(=O)Nc1ccc(-c2c(-c3ccc(S(=N)(=O)CC(C)(C)C)cc3)c3c(N)ncnc3n2C)cc1 (stereo unspecified)

IC50 [1]: 3.7 nM
IC50 [2]: > 1000 nM
IC50 [3]: 336 nM
SMILES: C=CC(=O)Nc1ccc(-c2c(-c3ccc(S(=N)(=O)C4CCCCCC4)cc3)c3c(N)ncnc3n2C)cc1 (stereo unspecified)

IC50 [1]: 914 nM
IC50 [2]: > 1000 nM
IC50 [3]: > 1000 nM
SMILES: C=CC(=O)Nc1ccc(-c2c(-c3ccc(S(C)(=N)=O)cc3)c3c(N)ncnc3n2C)cc1 (stereo unspecified)

IC50 [1]: 12.1 nM
IC50 [2]: > 1000 nM
IC50 [3]: > 1000 nM
SMILES: C=CC(=O)Nc1ccc(-c2c(-c3ccc(S4(=O)=NCCCC4)cc3)c3c(N)ncnc3n2C)cc1 (stereo unspecified)

IC50 [1]: 14.6 nM
IC50 [2]: > 1000 nM
IC50 [3]: > 1000 nM
SMILES: C=C(C)C(=O)Nc1ccc(-c2c(-c3ccc(S4(=O)=NCCCCC4)cc3)c3c(N)ncnc3n2C)cc1 (stereo unspecified)

IC50 [1]: 45.8 nM
IC50 [2]: > 1000 nM
IC50 [3]: > 1000 nM
SMILES: C=CC(=O)Nc1ccc(-c2c(-c3ccc(S(=N)(=O)C4CCC4)cc3)c3c(N)ncnc3n2C)cc1 (stereo unspecified)

IC50 [1]: 1.5 nM
IC50 [2]: > 1000 nM
IC50 [3]: 176 nM
SMILES: C=CC(=O)Nc1ccc(-c2c(-c3ccc(S4(=O)=NCCCCC45CCC5)cc3)c3c(N)ncnc3n2C)cc1 (stereo unspecified)

IC50 [1]: 320 nM
IC50 [2]: > 1000 nM
IC50 [3]: > 1000 nM
SMILES: C=CC(=O)Nc1ccc(-c2c(-c3ccc(S(=N)(=O)CC)cc3)c3c(N)ncnc3n2C)cc1 (stereo unspecified)

IC50 [1]: 8.7 nM
IC50 [2]: > 1000 nM
IC50 [3]: 441 nM
SMILES: C=CC(=O)Nc1ccc(-c2c(-c3ccc(S(=N)(=O)c4ccccc4)cc3)c3c(N)ncnc3n2C)cc1 (stereo unspecified)

IC50 [1]: 1.1 nM
IC50 [2]: > 1000 nM
IC50 [3]: 307 nM
SMILES: C=CC(=O)Nc1ccc(-c2c(-c3ccc(S4(=O)=NCCCCC4)cc3)c3c(N)ncnc3n2C)cc1 (stereo unspecified)
Ratio IC50 [27]: >279
